Laboratory results taken from patent publication US20030144345A1, “Treatment of metabolic diseases with soraphen derivatives” (priority 2001, published 2003).

Columns and labels:
differentiated L6 cells = experiment: Fatty acid (palmitate) oxidation assay with differentiated rat L6 muscle cells;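 further: differentiated rat L6 myotubes fed [14C]-palmitate, with oxidation read as 14CO2 trapped on filters and counted by liquid scintillation after 3 to 8 h at 37 °C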
Description: Labeling medium to assay oxidation of fatty acids was composed of glucose-deficient DMEM containing 3.7 g/l NaHCO3, 25 mM HEPES-NaOH, 0.5% fatty acid-free bovine serum albumin (BSA), 0.1% ethanol, 0.5% DMSO (or test compounds dissolved in DMSO), 5 mM D-glucose, and 16 μM unlabeled palmitate plus 0.25 μM [U-^14C]palmitate (approx. 800 mCi/mmol). After the addition of labeling medium, the cell culture plates were sealed air tight with self adhesive Super Sealing Film (Life Systems Design, #02-2796-3001). Before sealing, twelve 1 cm^2 squares of filter paper (Schleicher & Schuell, #GB004) pretreated with 50 μl of highly basic tissue solubilizer solution NCSII (Amersham Pharmacia, #NNCS-502) were attached to the lower side of the sealing film. Upon sealing of the tissue culture plates, the filters were positioned in the center above each well, and served to capture the evolving ^14CO2 that was produced by the cells in each individual well. After an incubation between 3 to 8 hours at 37° C., the filters were removed from the sealing film and the captured ^14CO2 was quantitated by liquid scintillation counting with 2 ml of scintillation cocktail BCS-NA (Amersham Pharmacia, #NBCS204) in a Tri-Carb liquid scintillation counter (Canberra Packard).
Cultivation of the differentiating rat muscle cell line L6 for fatty acid oxidation assays was performed as follows. For routine passaging, L6 cells (ATCC) were grown in T75 flasks in 15 ml of MEM Alpha medium (Gibco BRL Life Technologies, #22571-038), containing 10% heat inactivated FBS and 1% antibiotic/antimycotic solution (Gibco BRL Life Technologies, #15240-062). Incubation was done at 37° C. in a humid atmosphere containing 5% CO2. The cells were passaged twice per week by trypsinization.
For fatty acid oxidation assays, each well of a 12-well tissue culture plate was seeded with 2 to 5×10^4 cells in 1 ml of MEM Alpha, 10% FBS, 1% antibiotic/antimycotic solution. After 3 days, medium was exchanged by 1 ml of the same, fresh medium. After 5 days, medium was exchanged again, this time by 1 ml of medium containing 2% FBS, 1% antibiotic/antimycotic solution. After 7 days, the cells were fully differentiated and formed large multinucleated myotubes. At this stage, the medium was replaced by 1 ml of glucose-deficient DMEM supplemented with 3.7 g/l NaHCO3 and 25 mM HEPES-NaOH followed by a starvation period of 2 to 6 hours at 37° C. […] The compounds were tested at three different concentrations (2, 0.2 and 0.02 μM) on differentiated L6 cells.

Wistar rats = experiment: Lipid utilization by indirect calorimetry; type: in vivo, rat
From the text: b) Indirect calorimetry. Substrate utilization can be measured indirectly from respiratory gas exchanges. The method is based on the measurement of oxygen (O2) consumption and carbon-dioxide (CO2) release, both originating from the oxidation of the energetic substrates that progressively release the chemical energy stored in the carbon-hydrogen bonds of carbohydrates, lipids (and proteins). The amounts of carbohydrate and lipid being oxidized in the body at any given time can be calculated from the volumes of 02 consumption and CO2 exhalation by laboratory animals (and humans) in metabolic chambers. For a review of the methodology and the theoretical basis of indirect calorimetry, see Ferrannini, Metabolism, 37, 287-301, 1988.
An established, commercially available metabolic chamber apparatus (Oxymax, columbus Instruments, Ohio) was used to determine the gas exchange of vehicle-treated and compound (Ia)-treated Wistar rats in order to make precise and noninvasive measurements of the changes in the nature of the energetic substrate being oxidized by Wistar rats. Table 5 summarizes the data of the calculated lipid utilization determined for animals treated with two doses of compound (Ia), 10 and 30 mg/kg, administered subcutaneously 30 min. before starting the gas exchange measurements.

[1] = L6, repeated test Table 3, 0.002 μM
[2] = L6, repeated test Table 3, 0.02 μM
[3] = L6, repeated test Table 3, 0.2 μM

`CO[C@H]1CCCC[C@@H](c2ccccc2)OC(=O)[C@@H](C)C2(O)O[C@H]([C@@H](C)[C@H](O)[C@H]2OC)[C@@H](C)/C=C/[C@H]1OC` [Cpd (Ia), Soraphen A 1-α] was tested, and the Fold stimulation (differentiated L6 cells; L6, Table 2, 0.02 μM) was 1.8 fold, the Palmitate oxidation rate (differentiated L6 cells; L6, Table 2, 0.02 μM) was 16.4 +/− 1.0 pmol · h^−1 · well^−1 and the Fold stimulation (differentiated L6 cells; L6, Table 2, 0.2 μM) was 1.8 fold. For the same compound, the Palmitate oxidation rate (differentiated L6 cells; L6, Table 2, 0.2 μM) was 15.8 +/− 0.5 pmol · h^−1 · well^−1, the Fold stimulation (differentiated L6 cells; L6, Table 2, 2 μM) was 1.7 fold and the Palmitate oxidation rate (differentiated L6 cells; L6, Table 2, 2 μM) was 14.9 +/− 0.4 pmol · h^−1 · well^−1. The Fold stimulation (differentiated L6 cells; [1]) was 1.5 fold, the Palmitate oxidation rate (differentiated L6 cells; [1]) was 8.3 +/− 0.0 pmol · h^−1 · well^−1 and the Fold stimulation (differentiated L6 cells; [2]) was 2.2 fold. The Palmitate oxidation rate (differentiated L6 cells; [2]) was 12.1 +/− 1.0 pmol · h^−1 · well^−1, the Fold stimulation (differentiated L6 cells; [3]) was 2.7 fold and the Palmitate oxidation rate (differentiated L6 cells; [3]) was 14.6 +/− 0.1 pmol · h^−1 · well^−1. The EC50 (differentiated L6 cells; Rattus norvegicus, L6, read-out: EC50 for stimulation of palmitate oxidation) was 2 to 20 nM, the “% increase over vehicle” value (Wistar rats; 10 mg/kg s.c., 33.5 min) was 12.6% and the Accumulated lipid utilization (Wistar rats; 10 mg/kg s.c., 33.5 min) was 0.24 g/kg body weight. The “% increase over vehicle” value (Wistar rats; 10 mg/kg s.c., 67 min) was 9.6%, the Accumulated lipid utilization (Wistar rats; 10 mg/kg s.c., 67 min) was 0.49 g/kg body weight and the “% increase over vehicle” value (Wistar rats; 10 mg/kg s.c., 100.5 min) was 9.8%. For the same compound, the Accumulated lipid utilization (Wistar rats; 10 mg/kg s.c., 100.5 min) was 0.76 g/kg body weight, the “% increase over vehicle” value (Wistar rats; 10 mg/kg s.c., 134 min) was 9.8% and the Accumulated lipid utilization (Wistar rats; 10 mg/kg s.c., 134 min) was 1.03 g/kg body weight. For the same compound, the “% increase over vehicle” value (Wistar rats; 10 mg/kg s.c., 167.5 min) was 9.2%, the Accumulated lipid utilization (Wistar rats; 10 mg/kg s.c., 167.5 min) was 1.31 g/kg body weight and the “% increase over vehicle” value (Wistar rats; 10 mg/kg s.c., 201 min) was 8.4%. For the same compound, the Accumulated lipid utilization (Wistar rats; 10 mg/kg s.c., 201 min) was 1.61 g/kg body weight, the “% increase over vehicle” value (Wistar rats; 10 mg/kg s.c., 234.5 min) was 7.8% and the Accumulated lipid utilization (Wistar rats; 10 mg/kg s.c., 234.5 min) was 1.89 g/kg body weight. The “% increase over vehicle” value (Wistar rats; 10 mg/kg s.c., 268 min) was 7.9%, the Accumulated lipid utilization (Wistar rats; 10 mg/kg s.c., 268 min) was 2.17 g/kg body weight and the “% increase over vehicle” value (Wistar rats; 10 mg/kg s.c., 301.5 min) was 7.7%. The Accumulated lipid utilization (Wistar rats; 10 mg/kg s.c., 301.5 min) was 2.44 g/kg body weight, the “% increase over vehicle” value (Wistar rats; 10 mg/kg s.c., 335 min) was 7.2% and the Accumulated lipid utilization (Wistar rats; 10 mg/kg s.c., 335 min) was 2.73 g/kg body weight. For the same compound, the “% increase over vehicle” value (Wistar rats; 10 mg/kg s.c., 368.5 min) was 6.3%, the Accumulated lipid utilization (Wistar rats; 10 mg/kg s.c., 368.5 min) was 3.03 g/kg body weight and the “% increase over vehicle” value (Wistar rats; 30 mg/kg s.c., 33.5 min) was 28.4%. For the same compound, the Accumulated lipid utilization (Wistar rats; 30 mg/kg s.c., 33.5 min) was 0.27 g/kg body weight, the “% increase over vehicle” value (Wistar rats; 30 mg/kg s.c., 67 min) was 19.2% and the Accumulated lipid utilization (Wistar rats; 30 mg/kg s.c., 67 min) was 0.54 g/kg body weight. The “% increase over vehicle” value (Wistar rats; 30 mg/kg s.c., 100.5 min) was 14.5%, the Accumulated lipid utilization (Wistar rats; 30 mg/kg s.c., 100.5 min) was 0.79 g/kg body weight and the “% increase over vehicle” value (Wistar rats; 30 mg/kg s.c., 134 min) was 13.2%. For the same compound, the Accumulated lipid utilization (Wistar rats; 30 mg/kg s.c., 134 min) was 1.06 g/kg body weight, the “% increase over vehicle” value (Wistar rats; 30 mg/kg s.c., 167.5 min) was 12.5% and the Accumulated lipid utilization (Wistar rats; 30 mg/kg s.c., 167.5 min) was 1.35 g/kg body weight. The “% increase over vehicle” value (Wistar rats; 30 mg/kg s.c., 201 min) was 11.8%, the Accumulated lipid utilization (Wistar rats; 30 mg/kg s.c., 201 min) was 1.66 g/kg body weight and the “% increase over vehicle” value (Wistar rats; 30 mg/kg s.c., 234.5 min) was 11.7%. The Accumulated lipid utilization (Wistar rats; 30 mg/kg s.c., 234.5 min) was 1.96 g/kg body weight, the “% increase over vehicle” value (Wistar rats; 30 mg/kg s.c., 268 min) was 12.2% and the Accumulated lipid utilization (Wistar rats; 30 mg/kg s.c., 268 min) was 2.26 g/kg body weight. For the same compound, the “% increase over vehicle” value (Wistar rats; 30 mg/kg s.c., 301.5 min) was 12.5%, the Accumulated lipid utilization (Wistar rats; 30 mg/kg s.c., 301.5 min) was 2.55 g/kg body weight and the “% increase over vehicle” value (Wistar rats; 30 mg/kg s.c., 335 min) was 12.3%. The Accumulated lipid utilization (Wistar rats; 30 mg/kg s.c., 335 min) was 2.86 g/kg body weight, the “% increase over vehicle” value (Wistar rats; 30 mg/kg s.c., 368.5 min) was 11.5% and the Accumulated lipid utilization (Wistar rats; 30 mg/kg s.c., 368.5 min) was 3.18 g/kg body weight. For the same compound, the “Duration of effect on lipid oxidation” value (Wistar rats; 10 and 30 mg/kg s.c.) was “at least 6 hours”.
